Measured values reported in article PMC9606171, “Synthetic PPAR Agonist DTMB Alleviates Alzheimer’s Disease Pathology by Inhibition of Chronic Microglial Inflammation in 5xFAD Mice” (Neurotherapeutics, 2022).

What was measured:
[1] = system: 5xFAD mice; test: Bulk RNA-seq of hippocampus and cortex; assay type: in vivo
Protocol: (§1) DTMB was synthesized from Daejung Chemicals (Korea) and was dissolved in dimethyl sulfoxide (Sigma Aldrich, St. Louis, MO, USA) for cell-based experiments. To evaluate the effects of DTMB on 5xFAD mice, DTMB (10 mg/kg) and vehicle (1% carboxymethylcellulose and 10% DMSO) were orally administrated to four groups (wild-type, wild-type + DTMB, 5xFAD, and 5xFAD + DTMB) with a 6 day per week for 3 months.
RNA-seq libraries were prepared using the NEBNext® Ultra II Directional RNA Library Prep Kit for Illumina (BioLabs, MA, USA) and sequenced on Illumina HiSeq 2500 (San Diego, CA, USA). RNA-seq reads with adapter sequence were trimmed using cutadapt and aligned to the Mouse Ensemble Archive Release 100 by STAR [26]. Gene expression levels were quantified by RSEM [27]. Differential expression analysis was performed by DESeq2 [28], and functional enrichment of Gene ontology (GO) terms and pathways was estimated by Metascape. Pathway enrichment was estimated by GSEA [30] with the following options: “-metric log2_Ratio_of_Classes -permute gene_set.”

[2] = Body and tissue weight after 3 months of treatment; assay type: in vivo; settings: 3 months treatment; vehicle- vs DTMB-treated mice
Protocol: as §1

[3] = system: primary microglia; test: Western blot of NF-κB, NLRP3 and ASC in primary microglia; assay type: cell-based, mice; settings: DTMB 25 µM, 24 h
Protocol: Primary microglia culture was conducted as described in a previous study. Mice at postnatal day 3 mice were used for the preparation of primary microglia. Newborn mice pups were anesthetized in ice and then sacrificed. Isolated cortex and hippocampus were collected after removing the meninges. Brain tissues were dissociated by incubating in HBSS (Gibco, Gaithersburg, MD, USA) with trypsin (2.5%) for 15 min. Cell homogenates were then incubated in M-CSF (20 ng/mL, R&D Systems) supplemented with DMEM-F12 medium with 10% fetal bovine serum, 10% horse serum, 1% GlutaMAX (Gibco, MD, USA), and 1% penicillin/streptomycin (Welgene, Korea). After 10 days, microglia were purified through shaking at 260 rpm for 2 h.
Cells were lysed with lysis buffer containing 50 mM Tris (pH 7.4), 140 mM NaCl, 5 mM EDTA, and a protease inhibitor tablet, followed by sonication. Lysate protein concentrations were determined using Bradford reagents (AMERSCO, MA, USA). Proteins were resolved by sodium dodecyl sulfate (SDS) polyacrylamide gel electrophoresis, transferred to nitrocellulose membranes (Pall Corporation, New York, NY, USA), and incubated with blocking buffer (5% nonfat dry milk in TBS and 0.1% Tween 20) for 30 min. Western blot analyses were performed using primary antibodies against NF-κB, NLRP3, ASC, nicastrin, pen2 (Cell Signaling Technology, Danvers, MA, USA), Aph1 (Invitrogen), amyloid C-terminal fragment (Santa Cruz Biotechnology, Dallas, TX, USA), and GAPDH (Bethyl Laboratories, Mongomery, TX, USA). Secondary antibodies of rabbit (Promega), rat, and goat (Bethyl Laboratories) were used, and detection was performed with SUPEX ECL reagent (Neuronex, Korea) and an ImageQuant LAS-4000 (GE Healthcare, MA, USA), according to the manufacturer’s instructions. The integrated blot density was quantified through ImageJ.

[4] = system: 5xFAD mice; test: Y-maze test in 5xFAD mice; assay type: in vivo; settings: 10 mg/kg orally, 3 months
Protocol: as §1
The Y-maze test was conducted using a black y-shaped maze apparatus that has three equal-sized arms (40 × 3 × 12 cm) separated at 120° angles. The mice were placed into the same side of the arm at every trial and freely moved for 8 min under the dim light conditions (50 lx). To measure spatial memory, the number of arm entries to other sides was measured. The percentage of spontaneous alternation was calculated using the following formula: 100×(ActualAlteration/(Total#ofarmentrance-2)) . Sample sizes were 20–25 mice per group.

[5] = target: T1, PPARα (Homo sapiens, UniProt Q07869); test: Gal4-transactivation luciferase assay in HEK293A cells, PPARα LBD; assay type: cell-based
T1 construct: pcDNA5-GAL4-PPAR LBD, pG5-luc, and Rluc vector (as control) were transfected into HEK293A cells; expressed in transfected cells; host or cells: HEK293A
T1 sequence (Q07869 239-466 limits assumed): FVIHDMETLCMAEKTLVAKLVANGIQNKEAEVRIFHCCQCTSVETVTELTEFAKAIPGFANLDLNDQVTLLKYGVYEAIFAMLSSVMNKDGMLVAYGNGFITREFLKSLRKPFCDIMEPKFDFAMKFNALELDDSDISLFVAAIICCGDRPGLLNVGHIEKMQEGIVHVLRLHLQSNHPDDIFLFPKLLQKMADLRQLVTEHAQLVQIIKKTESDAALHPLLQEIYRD
Protocol: HEK293A cells were transfected with the GAL4-reporter plasmids and pGL4.74 (Promega, Madison, WI, USA) as an internal standard through electroporation using a Neon Transfection System (Invitrogen, Carlsbad, CA, USA). All vector materials were provided by Professor Yuichiro Kanno at Toho University. Cells were treated with DTMB and each positive control compound for 24 h after overnight incubation. Cells were then harvested and resuspended in luciferase lysis buffer (Promega), followed by incubation on ice for 10 min. Cell debris was removed by centrifugation at 20,000 × g at 4 °C for 10 min, and the supernatants were used for luciferase assay. Using a dual-luciferase reporter assay system (Promega), luciferase activities were measured according to the manufacturer’s instructions. Experimental firefly luciferase activities were normalized against those of Renilla luciferase.

[6] = system: 5xFAD mice; test: Immunohistochemistry of gliosis (Iba-1, GFAP) in 5xFAD brain; assay type: in vivo; settings: cortex and hippocampus, versus transgenic controls
Protocol: as §1
Mice were perfused with ice-cold phosphate-buffered saline (PBS). Brain tissues were separately used for either molecular analysis or immunohistochemistry. The right hemisphere was fixed with 4% PFA and was transferred to a sucrose solution (30%) for 24 h. The right hemisphere was embedded and frozen in optimal cutting temperature compound on dry ice. Coronal Sections (18 μm thick) that included the hippocampus were cut and prepared on slide glasses. Tissue sections were then permeabilized and blocked using a blocking solution (5% goat serum and 0.2% Triton X-100 in PBS) for 1 h at room temperature. Primary antibody incubation was performed overnight at 4 °C using an anti-6e10 antibody (Biolegend, Japan, 1:100), anti-Iba1 antibody (Wako, Japan, 1:200), and anti-GFAP antibody (Abcam, Cambridge, UK, 1:200). […] Slides were counterstained in Hoechst and then mounted in fluorescence mounting medium (Dako, Denmark). […] Fluorescence was measured by calculating % area and was analyzed using ImageJ. […]

Compound: COc1ccc(-c2cc(=O)oc3c(C)c(OC(=O)[C@H](Cc4c[nH]c5ccccc45)NC(=O)OC(C)(C)C)ccc23)cc1 [DTMB]
- gene expression level of Ece1 ([1]; hippocampus): significantly increased
- expression of neprilysin ([1]; hippocampus and cortex, not statistically significant (p-value is 0.27)): increased
- body or tissue weight [2]: no changes
- protein level of ASC [3]: not changed
- protein level of NF-κB [3]: decreased
- protein level of NLRP3 [3]: decreased
- Y-maze alternation [4]: improvement with a percentage similar to that of the wild-type mouse group
- relative luciferase activity ([5]; HEK293A, 24 h, various concentrations): increased luciferase activity
- transactivation (luciferase activity) compared to positive control ([5]; versus WY14643): stronger than the positive control
- percentage of areas stained for Iba-1 and GFAP (gliosis of microglia and astrocyte) [6]: decreased
